Measured values reported in patent publication US20240343738A1, “Method for preparing pranoprofen and composition comprising pranoprofen and impurity” (SHENYANG XINGQI PHARMACEUTICAL CO., LTD., priority 2021, published 2024).

Assay: Accelerated stability study of pranoprofen batches (impurity content by HPLC)
Format: physicochemical
Details: 40° C.±2° C., RH 75%±5%; for Maximum single impurity: maximum unknown single impurity
Procedure: In the present invention, unless otherwise specified, the accelerated experiment is carried out under the conditions of 40° C.±2° C. and RH75%±5% in accordance with the regulations in the “Technical Guidelines for Stability Research of Chemical Drugs”; preferably, an average value of 3 samples measured in parallel is taken.
In the present invention, unless otherwise specified, the content of each impurity or total impurities is measured by high performance liquid chromatography. Preferably, the chromatographic conditions comprise: using octadecylsilane-bonded silica gel as filler (5 μm, 250 mm×4.6 mm); using 0.05 mol/L sodium perchlorate aqueous solution-methanol (90:10, adding perchloric acid to adjust pH to 3.2) as mobile phase A, methanol as mobile phase B, following the gradient elution in Table 10, flow rate of 1.0 ml/min, column temperature of 40° C., detection wavelength of 275 nm.
In accordance with the relevant regulations in the “Technical Guidelines for Stability Research of Chemical Drugs”, the samples of the above three batches were taken and tested for 6 months under the conditions of 40° C.±2° C. and RH 75%±5%. And at the end of the 0th, 1st, 2nd, 3rd and 6th months of the experiment, the samples were taken for the detection of indicators.
The experiment was carried out according to the high performance liquid chromatography (the General Rule 0512 of the Chinese Pharmacopoeia, 2015 edition), in which octadecylsilane bonded silica gel was used as filler (5 μm, 250 mm×4.6 mm); 0.05 mol/L sodium perchlorate aqueous solution-methanol (90:10, adjusted to pH 3.2 by adding perchloric acid) was used as mobile phase A, methanol was used as mobile phase B, and gradient elution was carried out according to the table below, flow rate was 1.0 ml/min, column temperature was 40° C., and detection wavelength was 275 nm.
10 μl of the test solution was precisely taken and injected into the liquid chromatograph. If there were impurity peaks in the chromatogram of the test solution, a single impurity must not exceed 0.1%, and the sum of impurities must not exceed 0.5%.
The impurity objects to be detected were total impurity, impurity A, impurity C, impurity D, impurity L and maximum single impurity; and the detection conditions were the same as above.
Preparation of test solution: 50 mg of this product was taken, dissolved in a solvent (acetonitrile-water=1:1) and diluted to 50 ml to obtain the test solution.
Control stock solution of mixed impurities: 10.0 mg of each of impurities A, C, D, and L were weighed, respectively, and added to 10.0 ml volumetric flask, respectively, then added with methanol for dissolution and dilution to the mark, 1.0 ml of each of the above solutions was taken and added to 100.0 ml volumetric flask, then added with solvent for dilution to the mark to obtain the control stock solution of impurities.
Control solution of mixed impurities: 1.0 ml of the test solution was accurately taken, and added with solvent for dilution to 100.0 ml; 1.0 ml of the above solution was accurately taken, added with 1.0 ml of the control stock solution of mixed impurities, and added with solvent to 10.0 ml to obtain the control solution of mixed impurities.
Preparation of system suitability solution: 1.0 ml of the control stock solution of mixed impurities was accurately taken, and added with the test solution for dilution to 10 ml to obtain the system suitability solution.
Preparation of control solution: 1.0 ml of the test solution was taken, and added with solvent for dilution to 10.0 ml; 1.0 ml of the above solution was taken, and added with solvent for dilution to 100.0 ml to obtain the control solution.

Row | Impurity A (0th month) | Impurity D (0th month) | Impurity L (0th month) | Total impurities (0th month) | Impurity A (1st month after acceleration) | Impurity D (1st month after acceleration) | Impurity L (1st month after acceleration) | Total impurities (1st month after acceleration) | Impurity A (2nd month after acceleration) | Impurity D (2nd month after acceleration) | Impurity L (2nd month after acceleration) | Total impurities (2nd month after acceleration) | Impurity A (3rd month after acceleration) | Impurity D (3rd month after acceleration) | Impurity L (3rd month after acceleration) | Total impurities (3rd month after acceleration) | Impurity A (6th month after acceleration) | Impurity C (6th month after acceleration) | Impurity D (6th month after acceleration) | Impurity L (6th month after acceleration) | SMILES | further results
1 | Impurity A: 0.05% | Impurity D: 0.02% | Impurity L: 0.02% | Total impurities: 0.09% | Impurity A: 0.03% | Impurity D: 0.02% | Impurity L: 0.01% | Total impurities: 0.06% | Impurity A: 0.04% | Impurity D: 0.02% | Impurity L: 0.01% | Total impurities: 0.07% | Impurity A: 0.06% | Impurity D: 0.01% | Impurity L: 0.02% | Total impurities: 0.08% | Impurity A: 0.06% | Impurity C 0.03% | Impurity D: 0.02% | Impurity L: 0.02% | CC(C(=O)O)c1ccc2c(c1)Cc1cccnc1O2 (stereo not drawn) [Compound 20190101, pranoprofen] | Total impurities (6th month after acceleration): Total impurities: 0.17%; Maximum single impurity (6th month after acceleration): impurity: 0.02%
2 | Impurity A: 0.07% | Impurity D: 0.02% | Impurity L: 0.01% | Total impurities: 0.10% | Impurity A: 0.07% | Impurity D: 0.03% | Impurity L: 0.01% | Total impurities: 0.11% | Impurity A: 0.07% | Impurity D: 0.02% | Impurity L: 0.01% | Total impurities: 0.10% | Impurity A: 0.07% | Impurity D: 0.02% | Impurity L: 0.02% | Total impurities: 0.11% | Impurity A: 0.10% | Impurity C 0.03% | Impurity D: 0.01% | Impurity L: 0.02% | CC(C(=O)O)c1ccc2c(c1)Cc1cccnc1O2 (stereo not drawn) [Compound 20190201, pranoprofen] | Total impurities (6th month after acceleration): Total impurities: 0.24%; Maximum single impurity (6th month after acceleration): impurity: 0.08%
3 | Impurity A: 0.02% | Impurity D: 0.02% | Impurity L: 0.01% | Total impurities: 0.05% | Impurity A: 0.05% | Impurity D: 0.01% | Impurity L: 0.02% | Total impurities: 0.06% | Impurity A: 0.04% | Impurity D: 0.02% | Impurity L: 0.01% | Total impurities: 0.07% | Impurity A: 0.04% | Impurity D: 0.02% | Impurity L: 0.01% | Total impurities: 0.07% | Impurity A: 0.09% | Impurity C 0.01% | Impurity D: 0.01% | Impurity L: 0.02% | CC(C(=O)O)c1ccc2c(c1)Cc1cccnc1O2 (stereo not drawn) [Compound 20190202, pranoprofen] | Total impurities (6th month after acceleration): Total impurities: 0.15%; Maximum single impurity (6th month after acceleration): impurity: 0.02%
